Assay [1] deals with K562. In words: Cytotoxicity against human K562 cells assessed as reduction in cell viability after 48 hrs by MTT assay. The format is functional, cell-based. Background: Formazan colour is commonly taken as a measure of viable cells.
Assay [2] relates to HEL. The experiment in a line: Cytotoxicity against human HEL cells assessed as reduction in cell viability after 48 hrs by MTT assay. The format is functional, cell-based.
For assay [3], the system named is PC-3. In words: Cytotoxicity against human PC3 cells assessed as reduction in cell viability after 48 hrs by MTT assay. The format is functional, cell-based.
For assay [4], the system named is MDA-MB-231. In words: Cytotoxicity against human MDA-MB-231 cells assessed as reduction in cell viability after 48 hrs by MTT assay. The format is functional, cell-based.
Assay [5] can be described thus: Cytotoxicity against human WM9 cells assessed as reduction in cell viability after 48 hrs by MTT assay. The format is functional, cell-based.
The subject of assay [6] is PC-3. In words: Induction of apoptosis in human PC3 cells assessed as reduction in inactive pro-caspase-9 levels at 2.5 uM after 24 hrs by Western blot analysis. The format is functional, cell-based. Background: In western blotting, separated proteins are transferred to a membrane and probed.
Assay [7] relates to PC-3. In words: Induction of apoptosis in human PC3 cells after 24 hrs by Annexin V-FITC/propidium iodide double staining based flow cytometry. The format is functional, cell-based. In general terms: A flow cytometer gives signals particle by particle.
In assay [8] the test system is PC-3. The experiment in a line: Induction of apoptosis in human PC3 cells assessed as cell shrinkage at 2.5 uM after 24 hrs by Hoechst 33258 staining based inverted microscopic analysis. The format is functional.
For assay [9], the system named is PC-3. The experiment in a line: Induction of apoptosis in human PC3 cells assessed as increase in cleaved PARP levels at 2.5 uM after 24 hrs by Western blot analysis. The format is functional, cell-based.
For assay [10], the system named is PC-3. The experiment in a line: Induction of apoptosis in human PC3 cells assessed as increase in survivin levels at 2.5 uM after 24 hrs by Western blot analysis. The format is functional, cell-based.
Assay [11] deals with PC-3. The experiment in a line: Induction of apoptosis in human PC3 cells assessed as increase in cleaved caspase 9 levels at 2.5 uM after 24 hrs by Western blot analysis. It is filed as functional, cell-based.
Assay [12] concerns PC-3. The experiment in a line: Induction of apoptosis in human PC3 cells assessed as activation of BAX at 2.5 uM after 24 hrs by Western blot analysis. It is filed as functional, cell-based.
For assay [13], the system named is PC-3. The experiment in a line: Induction of apoptosis in human PC3 cells assessed as suppression of bcl2 at 2.5 uM after 24 hrs by Western blot analysis. It is filed as functional, cell-based.
Assay [14] deals with PC-3. The experiment in a line: Induction of apoptosis in human PC3 cells assessed as increase in cleaved caspase 3 levels at 2.5 uM after 24 hrs by Western blot analysis. The format is functional, cell-based.
In assay [15] the test system is PC-3. In words: Induction of apoptosis in human PC3 cells assessed as shrunken nucleus at 2.5 uM after 24 hrs by inverted microscopic analysis. The format is functional, cell-based.
Assay [16] deals with PC-3. In words: Induction of apoptosis in human PC3 cells assessed as decrease in cell membrane smoothness at 2.5 uM after 24 hrs by inverted microscopic analysis. The format is functional, cell-based.
Assay [17] concerns PC-3. In words: Induction of apoptosis in human PC3 cells assessed as formation of apoptotic bodies at 2.5 uM after 24 hrs by 33258-based inverted fluorescence microscopy. The format is functional, cell-based.
In assay [18] the test system is PC-3. The experiment in a line: Induction of apoptosis in human PC3 cells assessed as chromatin condensation at 2.5 uM after 24 hrs by Hoechst 33258-based inverted fluorescence microscopy. It is filed as functional, cell-based.
Assay [19] deals with PC-3. The experiment in a line: Induction of apoptosis in human PC3 cells assessed as reduction in full length PARP protein levels at 2.5 uM after 24 hrs by Western blot analysis. It is filed as functional, cell-based.

Active and inactive are the calls of the source. No cut-off for these calls is given here.

As a reminder, the IC50 is the concentration needed to halve the response being measured. Consider `CNC(=O)Nc1cc(OC)c2cc1C[C@H]1c3c(cc(OC)c(OC)c3Oc3cc4c(cc3OC)CCN(C)[C@H]4Cc3ccc(cc3)O2)CCN1C`, for which the concentration for half-maximal inhibition (IC50) is 9.21 µM in [1] (Homo sapiens, K562, 48 h); 9.42 µM in [2] (Homo sapiens, HEL, 48 h); 1.71 µM in assay [3] (Homo sapiens, PC-3, 48 h); 14.5 µM in assay [4] (Homo sapiens, MDA-MB-231, 48 h); 3.09 µM in assay [5] (Homo sapiens, WM9, 48 h).
The like results for `CCCNC(=O)Nc1cc(OC)c2cc1C[C@H]1c3c(cc(OC)c(OC)c3Oc3cc4c(cc3OC)CCN(C)[C@H]4Cc3ccc(cc3)O2)CCN1C` were, in that order, 5.09 µM, 4.79 µM, 0.73 µM, 6.31 µM and 4.83 µM.
The matching figures for `COc1cc(NC(=O)N2c3ccccc3Sc3ccccc32)c2cc1Oc1ccc(cc1)C[C@H]1c3cc(c(OC)cc3CCN1C)Oc1c(OC)c(OC)cc3c1[C@H](C2)N(C)CC3`: 2.49 µM, 3.32 µM, 2.95 µM, 4.14 µM and 3.21 µM.
For the molecule `COc1cc(NC(=S)Nc2ccc(F)cc2)c2cc1Oc1ccc(cc1)C[C@H]1c3cc(c(OC)cc3CCN1C)Oc1c(OC)c(OC)cc3c1[C@H](C2)N(C)CC3`, the outcome in [6], in assay [8], in [9], in assay [10], in assay [11] and in [12] was Active. For the same molecule, the result in [13], in [14], in assay [15], in assay [16], in assay [17] and in assay [18] was Active. The outcome in assay [19] was Active. Moreover, the Activity entry in assay [7] is “Dose-dependent effect”.
Turning to `O=c1[nH]cc(F)c(=O)[nH]1` [FLUOROURACIL], the 50% inhibitory concentration (IC50) in assay [1] (Homo sapiens, K562, 48 h) turned out to be 9.49 µM; in assay [2] (Homo sapiens, HEL, 48 h) it was 16 µM; in assay [3] (Homo sapiens, PC-3, 48 h), 19.9 µM; in [4] (Homo sapiens, MDA-MB-231, 48 h) it was 17.7 µM; in [5] (Homo sapiens, WM9, 48 h) it was 15.8 µM.
The like results for `COc1cc(NC(=S)Nc2ccc(C)cc2)c2cc1Oc1ccc(cc1)C[C@H]1c3cc(c(OC)cc3CCN1C)Oc1c(OC)c(OC)cc3c1[C@H](C2)N(C)CC3` were, in that order, 2.23 µM, 6.04 µM, 5.36 µM, 3.61 µM and 5.52 µM.
The like results for `COc1cc(NC(=O)NCCCl)c2cc1Oc1ccc(cc1)C[C@H]1c3cc(c(OC)cc3CCN1C)Oc1c(OC)c(OC)cc3c1[C@H](C2)N(C)CC3` were, in that order, 6.24 µM, 9.34 µM, 4.91 µM, 13.3 µM and 4.18 µM.
In the case of `COc1cc(NC(=O)N2CCN(S(C)(=O)=O)C2=O)c2cc1Oc1ccc(cc1)C[C@H]1c3cc(c(OC)cc3CCN1C)Oc1c(OC)c(OC)cc3c1[C@H](C2)N(C)CC3`, the IC50 in assay [1] (Homo sapiens, K562, 48 h) amounted to 3.06 µM; in [2] (Homo sapiens, HEL, 48 h) it was 5.51 µM; in assay [3] (Homo sapiens, PC-3, 48 h), 2.17 µM; in assay [4] (Homo sapiens, MDA-MB-231, 48 h), 4.33 µM; in [5] (Homo sapiens, WM9, 48 h), 3.76 µM.
For `COc1cc(NC(=O)Nc2ccc([N+](=O)[O-])cc2)c2cc1Oc1ccc(cc1)C[C@H]1c3cc(c(OC)cc3CCN1C)Oc1c(OC)c(OC)cc3c1[C@H](C2)N(C)CC3`, the concentration for half-maximal inhibition (IC50) in assay [1] (Homo sapiens, K562, 48 h) turned out to be 1.84 µM; in [2] (Homo sapiens, HEL, 48 h), 6.54 µM; in assay [3] (Homo sapiens, PC-3, 48 h), 6.85 µM; in [4] (Homo sapiens, MDA-MB-231, 48 h), 5.12 µM; in [5] (Homo sapiens, WM9, 48 h), 4.65 µM.
The matching figures for `COc1ccc(NC(=O)Nc2cc(OC)c3cc2C[C@H]2c4c(cc(OC)c(OC)c4Oc4cc5c(cc4OC)CCN(C)[C@H]5Cc4ccc(cc4)O3)CCN2C)cc1`: 3.22 µM, 6.65 µM, 4.67 µM, 10.2 µM and 5.01 µM.
The matching figures for `COc1cc(NC(=S)NC(C)C)c2cc1Oc1ccc(cc1)C[C@H]1c3cc(c(OC)cc3CCN1C)Oc1c(OC)c(OC)cc3c1[C@H](C2)N(C)CC3`: 3.19 µM, 4.22 µM, 2.1 µM, 5.57 µM and 3.63 µM.
The like results for `COc1cc(NC(=S)Nc2ccc(Cl)cc2)c2cc1Oc1ccc(cc1)C[C@H]1c3cc(c(OC)cc3CCN1C)Oc1c(OC)c(OC)cc3c1[C@H](C2)N(C)CC3` were, in that order, 2.43 µM, 7.18 µM, 6.08 µM, 4.35 µM and 6.93 µM.
Take `COc1cc(NC(=O)NCCc2ccccc2)c2cc1Oc1ccc(cc1)C[C@H]1c3cc(c(OC)cc3CCN1C)Oc1c(OC)c(OC)cc3c1[C@H](C2)N(C)CC3`: the IC50 worked out at 4.94 µM in [1] (Homo sapiens, K562, 48 h); 8.93 µM in [2] (Homo sapiens, HEL, 48 h); 5.9 µM in [3] (Homo sapiens, PC-3, 48 h); 9.76 µM in assay [4] (Homo sapiens, MDA-MB-231, 48 h); 7.68 µM in [5] (Homo sapiens, WM9, 48 h).
The matching figures for `COc1cc(NC(=O)N2CCOCC2)c2cc1Oc1ccc(cc1)C[C@H]1c3cc(c(OC)cc3CCN1C)Oc1c(OC)c(OC)cc3c1[C@H](C2)N(C)CC3`: 4.33 µM, 4.67 µM, 3.78 µM, 7.29 µM and 5.54 µM.
As to `CCCCNC(=S)Nc1cc(OC)c2cc1C[C@H]1c3c(cc(OC)c(OC)c3Oc3cc4c(cc3OC)CCN(C)[C@H]4Cc3ccc(cc3)O2)CCN1C`, the IC50 in assay [1] (k562) worked out at 2.02 µM; in [2] (hel), 1.96 µM; in [3] (pc-3), 1.05 µM; in [4] (mda-mb-231) it was 3.24 µM; in assay [5] it was 2.84 µM.
For `COc1cc(NC(=O)Nc2ccc(Cl)c(C(F)(F)F)c2)c2cc1Oc1ccc(cc1)C[C@H]1c3cc(c(OC)cc3CCN1C)Oc1c(OC)c(OC)cc3c1[C@H](C2)N(C)CC3`, the IC50 in [1] (Homo sapiens, K562, 48 h) amounted to 2.05 µM; in assay [2] (Homo sapiens, HEL, 48 h), 5.41 µM; in assay [3] (Homo sapiens, PC-3, 48 h), 4.7 µM; in assay [4] (Homo sapiens, MDA-MB-231, 48 h), 10.1 µM; in [5] (Homo sapiens, WM9, 48 h) it was 3.1 µM.
The matching figures for `COc1cc(NC(=O)Nc2ccc(C(F)(F)F)cc2)c2cc1Oc1ccc(cc1)C[C@H]1c3cc(c(OC)cc3CCN1C)Oc1c(OC)c(OC)cc3c1[C@H](C2)N(C)CC3`: 1.74 µM, 4.74 µM, 5.2 µM, 5.35 µM and 4.15 µM.

The values above are taken from ChEMBL document CHEMBL4138174, “Design and synthesis of novel C14-urea-tetrandrine derivatives with potent anti-cancer activity” (Eur J Med Chem, 2018).
